Measurements: article PMC4275256 (PLoS ONE, 2014)

What was measured:
Conditions in all cases: read-out: Km[HCO3 ^-]; pH 8, 50 mM NaCl, 24 °C; labelled compound; corrected for respiratory Ci
[1] = tested on: T1, SbtA5701 (SbtA1)
T1 construct: gene sbtA

[2] = tested on: T2, SbtA6307 (SbtA1)
T2 construct: gene sbtA

[3] = target: T3, SbtA7942 (Synechococcus elongatus, UniProt Q31N64)
T3 construct: gene Synpcc7942_1475

[4] = target: T4, SbtA6803 (Synechocystis sp. PCC 6803, UniProt P73953)
T4 construct: gene slr1512

Measured: Km

T4 sequence (P73953 1-374): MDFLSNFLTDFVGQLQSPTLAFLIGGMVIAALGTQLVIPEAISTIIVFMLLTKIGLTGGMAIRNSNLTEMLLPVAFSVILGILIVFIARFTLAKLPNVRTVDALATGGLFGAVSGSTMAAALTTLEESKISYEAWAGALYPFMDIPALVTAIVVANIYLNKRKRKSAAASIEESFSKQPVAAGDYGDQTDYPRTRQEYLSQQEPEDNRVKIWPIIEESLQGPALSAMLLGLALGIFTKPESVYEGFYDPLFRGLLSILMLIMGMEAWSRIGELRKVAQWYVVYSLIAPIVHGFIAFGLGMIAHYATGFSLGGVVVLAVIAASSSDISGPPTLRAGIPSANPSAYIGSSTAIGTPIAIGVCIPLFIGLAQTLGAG
T3 sequence (Q31N64 1-373): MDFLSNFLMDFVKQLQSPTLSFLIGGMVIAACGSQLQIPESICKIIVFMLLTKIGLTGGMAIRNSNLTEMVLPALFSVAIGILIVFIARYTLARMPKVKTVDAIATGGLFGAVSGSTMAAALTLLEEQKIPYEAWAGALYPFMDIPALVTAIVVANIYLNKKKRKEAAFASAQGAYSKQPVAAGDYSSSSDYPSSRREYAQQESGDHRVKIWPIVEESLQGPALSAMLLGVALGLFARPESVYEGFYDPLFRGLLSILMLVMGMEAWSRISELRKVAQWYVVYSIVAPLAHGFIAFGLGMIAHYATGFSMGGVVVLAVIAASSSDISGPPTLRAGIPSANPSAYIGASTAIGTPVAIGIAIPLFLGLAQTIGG

O=C(O)O [HCO3 ^-]
< 100 µM: all assays above
